Data reported in ChEMBL document CHEMBL1201862, “PubChem BioAssay data set” (2004).
The source made the active and inactive calls. Cut-off read from the data, not from the text of the source: actives have a measured IC50 and inactives only a lower limit.

Target: Envelope glycoprotein gp160 (Human immunodeficiency virus 1, UniProt Q6QLK5)
Assay: inhibitors of HIV fusion peptide binding, primary screen, biochemical, uHTS, fluorescence dequenching (AID 1986)

Envelope glycoprotein gp160, sequence (Q6QLK5 whole entry, the tested form may be a part): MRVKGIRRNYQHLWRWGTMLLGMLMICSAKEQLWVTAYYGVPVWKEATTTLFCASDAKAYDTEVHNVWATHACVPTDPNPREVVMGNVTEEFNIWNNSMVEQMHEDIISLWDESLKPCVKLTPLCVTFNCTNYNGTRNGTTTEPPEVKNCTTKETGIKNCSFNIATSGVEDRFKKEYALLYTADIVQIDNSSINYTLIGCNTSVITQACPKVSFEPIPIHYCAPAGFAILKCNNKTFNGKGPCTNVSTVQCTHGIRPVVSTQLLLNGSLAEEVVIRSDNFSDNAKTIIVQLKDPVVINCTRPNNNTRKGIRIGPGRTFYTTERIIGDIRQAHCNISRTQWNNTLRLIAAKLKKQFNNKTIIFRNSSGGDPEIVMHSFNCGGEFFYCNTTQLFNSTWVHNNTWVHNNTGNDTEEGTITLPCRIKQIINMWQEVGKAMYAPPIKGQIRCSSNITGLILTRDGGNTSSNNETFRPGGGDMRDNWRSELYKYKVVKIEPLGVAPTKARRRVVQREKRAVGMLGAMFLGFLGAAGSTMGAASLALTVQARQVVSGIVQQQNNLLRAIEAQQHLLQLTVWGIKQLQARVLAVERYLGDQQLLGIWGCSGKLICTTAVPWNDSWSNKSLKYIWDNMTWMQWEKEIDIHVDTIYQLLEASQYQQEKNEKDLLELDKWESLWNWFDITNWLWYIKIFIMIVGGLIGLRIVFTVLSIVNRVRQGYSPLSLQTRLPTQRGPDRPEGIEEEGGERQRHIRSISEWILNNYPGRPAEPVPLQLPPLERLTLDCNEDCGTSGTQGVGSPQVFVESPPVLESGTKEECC

Row | Structure (SMILES) | IC50
1 | COc1ccc(C(=O)Nc2ccccc2C(=O)O)cc1NC(=O)C(c1ccccc1)c1ccccc1 | 14.1 µM (active)
2 | CCOC(=O)c1c(N2C(=O)Nc3cc(Cl)c(Cl)cc3N2O)sc2c1CCCCC2 | 22.3 µM (active)
